Patent EP2210604A1, “PHARMACEUTICAL COMPOSITIONS COMBINING A NONSTEROIDAL ANTI-INFLAMMATORY AGENT AND A XANTHINE OXIDASE INHIBITING AGENT, WHICH CAN BE USED TO CONTROL AND TREAT GOUT, GOUTY ARTHRITIS AND RELATED DISEASES” (Espinosa Abdala, Leopoldo de Jesús, priority 2007, dated 2009)
Each block holds one compound with its values, some of them ahead of it.

Columns and labels:
[1] = cited from earlier work
[2] = tested on: patients with Gouty arthritis; assay: Clinical study (Phase I): combination of Allopurinol/Meloxicam vs independent delivery, 52 weeks follow-up; type: in vivo; settings: for Uric Acid Average, baseline / Uric Acid Average, at the end of study: Allopurinol 300 mg per day, Meloxicam 15 mg per day, or combination 300 mg/15 mg, n=50 per group; for Uric Acid Average, at the end of study: end of study (52 weeks)
Method: A clinical study was carried out assessing the efficacy of a combination of Allopurinol/Meloxicam vs independent delivery of Allopurinol and Meloxicam in patients with Gouty arthritis.
There were 150 patients with gout and with uric acid levels at least of 8 mg/dL randomly selected for this study.
Main validation criterion was uric acid concentration of 6 mg/dL, in the last 3 monthly determinations. Secondary validation criteria included a reduction of incidence in gout worsening events.

[3] = tested on: arthritic pain model in rat; assay: PIFIR model: uric acid-induced arthritic pain model in rat, antinociceptive activity; settings: oral; for DE50: dose causing 50% of maximum possible effect, drug alone
Method: An arthritic pain model in rat was determined for said purpose. Data were interpreted by a Surface Synergistic Interaction analysis (ISS) and an isobolographic analysis to determine the interaction nature. ISS was calculated from the total antinociceptive effect produced by the combination after subtracting the antinociceptive effect produced by drug separately.
For this study Wistar female rats were used [Crl (WI) BR] weighing between 180 to 200 gr. […] Number of animals in experiment was kept minimal and animals were kept in a room with climate and light control with a 12-hour light/dark cycle.
At the completion of study rats were sacrificed.
Animals were anesthesized with ether in a chamber (Pyrex glass dryer with ether vapor). Nociception was induced through a 0.05 mL uric acid intraarticular (ia) injection suspended in mineral oil in knee joint from right back leg. The suspension was prepared by milling 3.0 g. of uric acid with 10 mL of mineral oil in a glass mortar with pestle (Pyrex). Intraarticular injection was carried out through patellar ligament using a 1 mL glass syringe (Beckton Dickinson LTA, Brazil) with a 5 mm 24-gauge needle. An electrode was implanted immediately after to the plantar surface of each back claw between plantar pads. […] Contact time between each electrode from rat limb and cylinder was registered. […] This time was determined as zero time for measuring antinociceptive effects; these effects were measured every 30 minutes during the following 4 hours. This allowed determining the time course for antinociceptive effects in the same animal. Antinociception was considered as a recovery of contact time. Data are expressed as Functionality percentage index (IF%, that is, contact time on injected leg by the contact time in left leg, control, multiplied by 100). For the purpose of this study, nociception induction in experimental animals was unavoidable. However, care was taken to prevent an unnecessary suffering. All experiments were performed between 7:00 am and 2:00 pm.
Study data, tables and figures are expressed as IF%. Curves for IF% vs time were prepared for each treatment and the corresponding course time was obtained. Antinociception was estimated as a recovery of IF%. Accumulated antinociceptive effect during the whole observation period (4 hours) was determined as the area below the curve (ABC) from time course to obtain a dose-response curve and for analyzing the total antinociceptive effect obtained by analgesic agent whether alone or in combination.
ABC was calculated for each drug combination and for each of the components. […] If the […] ABC was higher than the theoretical sum, the result was considered enhancement; when it was similar to the theoretical sum then was determined to show additive antinociceptive effects. […] All values for each treatment are average ± S. E. M., for six animals. ABC values for drug combinations were compared with expected values using the Student test.
Doses which caused 50% of maximum possible effect (DE50) of each drug were calculated by performing a linear regression analysis of the linear portion from dose-response curves. The isobologram was prepared by using the DE50 when drugs were delivered alone or in combination. […] DE50 value from combination total dose was calculated from the dose-response curve of combined drugs. Statistical significance between additive theoretical point and DE50 experimental value was validated by using the Student test.

[4] = tested on: plasma proteins; settings: cited from earlier work

walking capability of treated rats ([3]; Meloxicam 0.18-5.62 mg/kg, Allopurinol 3.16-56.23 mg/kg): did not affect the walking capability
Compound: Oc1ncnc2[nH]ncc12 [Allopurinol]
ingested drug excreted in stools ([1]; in vivo): About 20%
global incidence of acute events ([2]; along 9 to 52 weeks, comparison between groups): similar
Uric Acid Average, baseline [2]: 9 mg/dL
Uric Acid Average, at the end of study [2]: 7 mg/dL
adverse events reported (gastrointestinal upset) ([2]; number of events per group of 50 patients, 52 weeks): Six
ABC ([3]; Allopurinol 10.0 mg/kg alone, 4 hours): 22.5 ± 9.3 au
ABC ([3]; Allopurinol 17.78 mg/kg alone, 4 hours): 58.2 ± 23.7 au
antinociceptive efficacy (ABC) ([3]; Allopurinol 56.23 mg/kg, 4 hours): 207.7 ± 24.7 au
side effects in animals ([3]; Allopurinol at 100 mg/kg): did not cause side effects
DE50 [3]: 44.29 ± 0.06 mg/kg

Compound: Cc1ccc(-c2cc(C(F)(F)F)nn2-c2ccc(S(N)(=O)=O)cc2)cc1 [Celecoxib]
time to maximum plasma levels ([1]; after oral dose): about 3 hours
dose recovered in feces ([1]; as metabolites): 57%
dose recovered in urine ([1]; as metabolites): 27%
half-life ([1]; clearance half-life): about 11 hours
Plasmatic clearance ([1]; in vivo): about 500 mL/min
distribution volume ([1]; in vivo): about 400 L

Compound: Cc1cnc(NC(=O)C2=C(O)c3ccccc3S(=O)(=O)N2C)s1 [Meloxicam]
adherence with plasma proteins [4]: > 99%
bioavailability ([1]; oral): 89%
Uric Acid Average, baseline [2]: 10 mg/dL
Uric Acid Average, at the end of study [2]: 9 mg/dL
ABC ([3]; Meloxicam 0.32 mg/kg alone, 4 hours): 65.0 ± 9.6 au
ABC ([3]; Meloxicam 0.56 mg/kg alone, 4 hours): 98.7 ± 15.5 au
ABC ([3]; Meloxicam 1.78 mg/kg alone, 4 hours): 279.0 ± 15.5 au
antinociceptive efficacy (ABC) ([3]; Meloxicam 2.16 mg/kg (so in the source), 4 hours): 295.8 ± 14.9 au
antinociceptive effect (ABC) ([3]; Meloxicam 3.16 mg/kg (maximum used dosage), 4 hours): 295.8 ± 14.9 au
DE50 [3]: 0.86 ± 0.10 mg/kg
